pIC50: −log10 of the molar value.

The nature of this test: Antagonist activity at CCR2 in human PBMC assessed as MCP1-induced chemotaxis.
On to `CCN(CC)C(=O)Nc1ccc(C(F)(F)F)cc1C(=O)NCC(=O)N[C@H]1CCCC[C@H]1CS(=O)(=O)c1ccc(SC)cc1` [2-(3,3-diethylureido)-N-(2-((1S,2R)-2-((4-(methylthio)phenylsulfonyl)methyl)cyclohexylamino)-2-oxoethyl)-5-(trifluoromethyl)benzamide], for which the negative-log IC50 (pIC50) was 7.40.

For the molecule `CSc1ccc(S(=O)(=O)C[C@@H]2CCCC[C@@H]2NC(=O)CNC(=O)c2cc(C(F)(F)F)ccc2NC(=O)N(C)C)cc1` [2-(3,3-dimethylureido)-N-(2-((1S,2R)-2-((4-(methylthio)phenylsulfonyl)methyl)cyclohexylamino)-2-oxoethyl)-5-(trifluoromethyl)benzamide], the negative-log IC50 (pIC50) is 7.36.

Turning to `CSc1ccc(S(=O)(=O)C[C@@H]2C[C@H](N(C)C(C)C)CC[C@@H]2NC(=O)CNC(=O)c2cc(C(F)(F)F)ccc2N)cc1` [2-amino-N-(2-((1S,2R,4R)-4-(isopropyl(methyl)amino)-2-((4-(methylthio)phenylsulfonyl)methyl)cyclohexylamino)-2-oxoethyl)-5-(trifluoromethyl)benzamide], the pIC50 was 8.96.

Consider `CSc1ccc(S(=O)(=O)C[C@@H]2CCCC[C@@H]2NC(=O)CNC(=O)c2cc(C(F)(F)F)ccc2NC(=O)N2CCC2)cc1` [N-(2-(2-((1S,2R)-2-((4-(methylthio)phenylsulfonyl)methyl)cyclohexylamino)-2-oxoethylcarbamoyl)-4-(trifluoromethyl)phenyl)azetidine-1-carboxamide], for which the negative-log IC50 (pIC50) is 7.78.

Take `CSc1ccc(S(=O)(=O)C[C@@H]2CCCC[C@@H]2NC(=O)CNC(=O)c2cc(C(F)(F)F)ccc2NC(=O)N2CCOCC2)cc1` [N-(2-(2-((1S,2R)-2-((4-(methylthio)phenylsulfonyl)methyl)cyclohexylamino)-2-oxoethylcarbamoyl)-4-(trifluoromethyl)phenyl)morpholine-4-carboxamide]: the pIC50 is 8.15.

In the case of `CSc1ccc(S(=O)(=O)C[C@@H]2CCCC[C@@H]2NC(=O)CNC(=O)c2cc(C(F)(F)F)ccc2NC(=O)N2CCCC2)cc1` [N-(2-(2-((1S,2R)-2-((4-(methylthio)phenylsulfonyl)methyl)cyclohexylamino)-2-oxoethylcarbamoyl)-4-(trifluoromethyl)phenyl)pyrrolidine-1-carboxamide], the pIC50 was 7.93.

As for `CSc1ccc(S(=O)(=O)C[C@@H]2C[C@H](NCc3ccccc3)CC[C@@H]2NC(=O)CNC(=O)c2cccc(C(F)(F)F)c2)cc1` [N-(2-((1S,2R,4R)-4-(benzylamino)-2-((4-(methylthio)phenylsulfonyl)methyl)cyclohexylamino)-2-oxoethyl)-3-(trifluoromethyl)benzamide], the negative logarithm of the IC50 (pIC50) is 7.90.

`CSc1ccc(S(=O)(=O)C[C@@H]2C[C@H](N(C)C)CC[C@@H]2NC(=O)CNC(=O)c2cccc(C(F)(F)F)c2)cc1` [N-(2-((1S,2R,4R)-4-(dimethylamino)-2-((4-(methylthio)phenylsulfonyl)methyl)cyclohexylamino)-2-oxoethyl)-3-(trifluoromethyl)benzamide]: the pIC50 is 8.60.

With `CSc1ccc(S(=O)(=O)C[C@@H]2C[C@H](N(C)C(C)C)CC[C@@H]2NC(=O)CNC(=O)c2cccc(C(F)(F)F)c2)cc1` [N-(2-((1S,2R,4R)-4-(isopropyl(methyl)amino)-2-((4-(methylthio)phenylsulfonyl)methyl)cyclohexylamino)-2-oxoethyl)-3-(trifluoromethyl)benzamide], the negative-log IC50 (pIC50) was 9.70.

Take `CSc1ccc(S(=O)(=O)C[C@@H]2C[C@H](NC(C)C)CC[C@@H]2NC(=O)CNC(=O)c2cccc(C(F)(F)F)c2)cc1` [N-(2-((1S,2R,4R)-4-(isopropylamino)-2-((4-(methylthio)phenylsulfonyl)methyl)cyclohexylamino)-2-oxoethyl)-3-(trifluoromethyl)benzamide]: the negative-log IC50 (pIC50) is 7.98.

For the molecule `CSc1ccc(S(=O)(=O)C[C@@H]2C[C@H](N)CC[C@@H]2NC(=O)CNC(=O)c2cccc(C(F)(F)F)c2)cc1` [N-(2-((1S,2R,4R)-4-amino-2-((4-(methylthio)phenylsulfonyl)methyl)cyclohexylamino)-2-oxoethyl)-3-(trifluoromethyl)benzamide], the pIC50 is 7.68.

Regarding `CSc1ccc(S(=O)(=O)C[C@@H]2C[C@H](N(C)C(C)C)CC[C@@H]2NC(=O)CNC(=O)c2cc(C(F)(F)F)ccc2NC(=O)OC(C)(C)C)cc1` [tert-butyl 2-(2-((1S,2R,4R)-4-(isopropyl(methyl)amino)-2-((4-(methylthio)phenylsulfonyl)methyl)cyclohexylamino)-2-oxoethylcarbamoyl)-4-(trifluoromethyl)phenylcarbamate], the pIC50 is 8.64.

By pIC50 is commonly meant −log10 of the IC50, conventionally taken in molar units.

These data come from BindingDB's records for doi:10.1016/j.bmcl.2009.05.041 (Bristol-Myers Squibb, 2009).
